PubChem BioAssay (NCI)
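All cell lines were grown in 96-well plates and treated with compound for 48 hours. TGI denotes the concentration required for complete inhibition of growth.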

Columns and labels:
Experiment in all cases: NCI tumour cell line growth inhibition, 48 h
[1] = test system: SK-MEL-5 melanoma
[2] = test system: UO-31 renal
[3] = test system: M19-MEL melanoma
[4] = test system: SK-MEL-28 melanoma
[5] = test system: NCI-H23 lung
[6] = test system: DLD-1 colon
[7] = test system: DMS 114 small cell lung
[8] = test system: HCC-2998 colon
[9] = test system: HCT-15 colon
[10] = test system: SW-620 colon
[11] = test system: DMS 273 small cell lung
[12] = test system: KM20L2 colon
[13] = test system: OVCAR-5 ovarian
[14] = test system: MOLT-4 leukemia
[15] = test system: U251 CNS
[16] = test system: KM12 colon
[17] = test system: P388/ADR leukemia
[18] = test system: A549 NSCLC
[19] = test system: HOP-92 NSCLC
[20] = test system: HOP-18 NSCLC
[21] = test system: LOX IMVI melanoma
[22] = test system: SK-MEL-2 melanoma
[23] = test system: NCI/ADR-RES ovarian
[24] = test system: SK-OV-3 ovarian
[25] = test system: OVCAR-4 ovarian
[26] = test system: RXF 393 renal
[27] = test system: SF-539 CNS
[28] = test system: HT29 colon
[29] = test system: CAKI-1 renal
[30] = test system: MALME-3M melanoma
[31] = test system: NCI-H522 lung
[32] = test system: XF 498 CNS
[33] = test system: OVCAR-8 ovarian
[34] = test system: A498 renal
[35] = test system: COLO 205 colon
[36] = test system: SNB-75 CNS
[37] = test system: HOP-62 NSCLC
[38] = test system: EKVX NSCLC
[39] = test system: SF-295 CNS
[40] = test system: MCF7 breast
[41] = test system: CCRF-CEM leukemia
[42] = test system: SNB-78 CNS
[43] = test system: OVCAR-3 ovarian
[44] = test system: UACC-257 melanoma
[45] = test system: IGROV1 ovarian
[46] = test system: RPMI-8226 leukemia
[47] = test system: P388 leukemia
[48] = test system: SN12C renal
[49] = test system: K-562 leukemia
[50] = test system: SF-268 CNS
[51] = test system: SNB-19 CNS
[52] = test system: NCI-H226 lung
[53] = test system: SN12K1 renal
[54] = test system: HCT-116 colon
[55] = test system: UACC-62 melanoma
[56] = test system: NCI-H460 lung
[57] = test system: HL-60(TB) leukemia

`NCC(Cl)C(O)c1cnc(N)[nH]1` (configuration not stated) gave a TGI [1] of 47.6 µM, a TGI [2] of 6.38 µM and a TGI [3] of 29.8 µM. It also gave a TGI [4] of over 76.6 µM, a TGI [5] of 16 µM and a TGI [6] of 29.2 µM. The TGI [7] was 40.7 µM, the TGI [8] was 5.12 µM and the TGI [9] was over 63.2 µM. The TGI [10] was 3.89 µM, the TGI [11] was 21.4 µM and the TGI [12] was 20.8 µM. For the same compound, the TGI [13] was 20.6 µM, the TGI [14] was 2.65 µM and the TGI [15] was over 100 µM. For the same compound, the TGI [16] was 2.96 µM, the TGI [17] was 10.1 µM and the TGI [18] was 9.28 µM. It also gave a TGI [19] of 91.4 µM, a TGI [20] of 3.45 µM and a TGI [21] of 16.8 µM. It also gave a TGI [22] of 18.3 µM, a TGI [23] of over 100 µM and a TGI [24] of over 44.6 µM. For the same compound, the TGI [25] was 10.2 µM, the TGI [26] was 4.7 µM and the TGI [27] was 5.85 µM. The TGI [28] was over 37.1 µM, the TGI [29] was 4.35 µM and the TGI [30] was 11.2 µM. For the same compound, the TGI [31] was 7.1 µM, the TGI [32] was 9.23 µM and the TGI [33] was 15.5 µM. For the same compound, the TGI [34] was 1.01 µM, the TGI [35] was 5.51 µM and the TGI [36] was 38.8 µM. The TGI [37] was 5.98 µM, the TGI [38] was 8.53 µM and the TGI [39] was 52.6 µM. For the same compound, the TGI [40] was over 65.5 µM, the TGI [41] was over 83.6 µM and the TGI [42] was over 90.9 µM. For the same compound, the TGI [43] was 16.2 µM, the TGI [44] was 32 µM and the TGI [45] was 4.34 µM. The TGI [46] was 2.15 µM, the TGI [47] was 1.06 µM and the TGI [48] was 32.8 µM. It also gave a TGI [49] of over 100 µM, a TGI [50] of over 73.8 µM and a TGI [51] of 19.3 µM. It also gave a TGI [52] of 17.6 µM, a TGI [53] of 12.4 µM and a TGI [54] of over 34.5 µM. The TGI [55] was 63 µM, the TGI [56] was over 44.1 µM and the TGI [57] was 25.4 µM.
